pIC50: −log10 of the molar value. Read-outs that look alike come from different tables or passages of the source.
Experiments:
CD38^+ HeLa cells = experiment: Intracellular calcium assay (FURA 2-AM), CD38+ HeLa; format: cell-based, human; conditions: 10 μM for 18 hours; for tapsigargine-induced release of calcium from ER stores [Ca^2+]i: 1 μM tapsigargine
Procedure: Adherent CD38^+ and CD38^− human HeLa cells on 20 mm-diameter coverslips were incubated in complete medium in the presence of […] P18 or P24 for […]. The cells were then washed, incubated with 6 μM Fura 2-acetoxymethyl ester (FURA 2-AM) in standard saline (135 mM NaCl, 5.4 mM KCl, 1.8 mM CaCl2, 1 mM MgCl2, 5 mM Hepes, 10 mM glucose, pH 7.4) for 45 minutes at 37° C. and then washed several times with saline. Calcium measurements were performed in a 200-μl chamber mounted on an inverted microscope, as described in detail in Zocchi E., et al. (1998) J. Biol. Chem. 273, 8017-8024. After determination of basal [Ca^2+]i levels, 1 μM tapsigargine was added to induce the release of calcium from tapsigargine-sensitive stores ([…]). The parameter values needed for calibration were obtained at the end of the experimental measurements, as described in Zocchi E., et al. (1998) J. Biol. Chem. 273, 8017-8024.
Basal cytosolic calcium and tapsigargine-induced release of calcium from […] (ER) stores (in bold in Table 4) were measured in CD38^+ and CD38^− HeLa cells loaded with FURA 2-AM and incubated in the absence (control) or in the presence of P18 or P24 at a concentration of 10 μM for 18 hours. The results obtained, expressed as [Ca^2+]I nanomolarity, are summarised in Table 4, showing mean results from 8 separate experiments (s.d.≦15% of the mean value).

CD38^+ HeLa = experiment: MTT reduction proliferation assay, CD38+ HeLa; format: cell-based, human; conditions: 24 hours
Procedure: (§1) The effect of P18 and P24 on the proliferation of several cell lines was determined by the MTT reduction assay (Mosmann, T. (1983) J. Immunol. Methods 65, 55-63). […] After 24 hours, 10 μl of a 5 mg/ml solution of MTT were added to each well and the plates incubated for a further 2 hours. The supernatant was then removed from each well and the blue crystals produced by the reduction of the dye were dissolved in DMSO (200 μl/well). The optical absorbance at 570 nm was determined with a BioRad microplate reader.
(§2) In these experiments, cells were seeded onto 96 well plates (3×10^4 cells per well) and incubated in the presence of increasing concentrations of P18 or P24. After 24 hours, the percentage of viable cells was evaluated by spectrophotometric measurement of the concentration of reduced MTT (see Materials and Methods). The means of at least three separate experiments are shown (s.d.≦20% of the mean value). The production of P18 and P24 by human CD38 cyclase, with inhibitory effects on colony growth, together with cADPR, with stimulatory effect, may be at least partly responsible for the colony growth inhibition observed during long term culture of human HP cells on CD38^+ stroma. […]

K562 = experiment: MTT reduction proliferation assay, K562; format: cell-based, human; conditions: K562 proerythroblastic leukemia, 24 hours
Procedure: The effect of P18 and P24 on the proliferation of several cell lines was determined by the MTT reduction assay (Mosmann, T. (1983) J. Immunol. Methods 65, 55-63). Briefly, cells were seeded at a concentration of 3×10^4/well in flat-bottomed 96-well plates and grown in complete medium in the presence of various concentrations (ranging between 20 and 0.4 μM) of purified dinucleotides. After 24 hours, 10 μl of a 5 mg/ml solution of MTT were added to each well and the plates incubated for a further 2 hours. The supernatant was then removed from each well and the blue crystals produced by the reduction of the dye were dissolved in DMSO (200 μl/well). The optical absorbance at 570 nm was determined with a BioRad microplate reader.
In these experiments, cells were seeded onto 96 well plates (3×10^4 cells per well) and incubated in the presence of increasing concentrations of P18 or P24. After 24 hours, the percentage of viable cells was evaluated by spectrophotometric measurement of the concentration of reduced MTT (see Materials and Methods). The means of at least three separate experiments are shown (s.d.≦20% of the mean value). […]

Recombinant CD38 = experiment: Hydrolysis by recombinant CD38
Procedure: (§3) ADP-ribosyl cyclases from lower and higher Metazoa were incubated in the presence of 0.1 mM cADPR and 1 mM adenine at pH 7.4 in 10 mM Tris-HCl (A, B and C) or in PBS-glucose (D) at 22° C. (A and B) or at 37° C. (C and D) for 4 hours. Aliquots of the various incubations were deproteinised with TCA (trichloroacetic acid) and subjected to HPLC (analytical phosphate). Chromatograms representative of each incubation are shown. A. A. polypoides; B. A. californica; C. Human CD38 (recombinant); D. Human HeLa cells transfected with sense and antisense human CD38 (dashed chromatogram).
(§4) In table 1, the absolute values of the peak-forming and -hydrolysing activities are compared with the cADPR-forming and -hydrolysing activities for each enzyme. The activities are expressed as nmol/min/mg.

HCT-8 = experiment: MTT reduction proliferation assay, HCT-8; format: cell-based, human; conditions: HCT-8 colon carcinoma, 24 hours
Procedure: as §1, §2

Acid hydrolysis = format: physicochemical; conditions: yielding adenine and ADPR
[1] = tested on: HeLa-CD38^+ (whole cells); experiment: Hydrolysis by CD38+ HeLa whole cells
Procedure: as §3, §4

SMILES | ER stores-calcium, % of the control (CD38^+ HeLa cells) [%] | basal [Ca^2+]i, % of the control (CD38^+ HeLa cells) [%] | basal cytosolic free calcium [Ca^2+]i (CD38^+ HeLa cells) [nM] | tapsigargine-induced release of calcium from ER stores [Ca^2+]i (CD38^+ HeLa cells) [nM] | pIC50 (CD38^+ HeLa) | pIC50 (K562) | resistance to CD38 catalysed hydrolysis (Recombinant CD38; recombinant CD38) | hydrolysis activity (Recombinant CD38; recombinant CD38, P18 and P24 to adenine and ADPR) | pIC50 (HCT-8) | sensitivity to acid hydrolysis (Acid hydrolysis) | hydrolysis activity ([1]; HeLa-CD38^+ whole cells, P18 and P24 to adenine and ADPR) | hydrolysis activity (Recombinant CD38) | hydrolysis activity [1]
Nc1ncnc2c1ncn2[C@@H]1O[C@H](COP(=O)(O)OP(=O)(O)OC[C@H]2O[C@@H](n3cnc4ncnc-4c3N)[C@H](O)[C@@H]2O)[C@@H](O)[C@H]1O [P18] | 48 | 41 | 16 | 123 | 3.92 | 4.36 | resistance | 6.0^1 nmol/min/mg | 4.19 | sensitive to acid hydrolysis | 0.24^1 nmol/min/mg |  | 
Nc1ncn([C@@H]2O[C@H](COP(=O)(O)OP(=O)(O)OC[C@H]3O[C@@H](n4cnc5c(N)ncnc54)[C@H](O)[C@@H]3O)[C@@H](O)[C@H]2O)c2ncnc1-2 [P24] | 80 | 154 | 57 | 203 | 5.04 | 5.24 |  |  | 4.57 | sensitive to acid hydrolysis |  | 0.25^1 nmol/min/mg | 0.06^1 nmol/min/mg

Reference: US7868163B2, “Adenyl dinucleotides with antitumour activity and a method of preparing thereof” (Universita' Degli Studi Di Genova, priority 2005, dated 2011)
